Data reported in US6737383B1, “Herbicidal oxadiazolidines” (priority 1999, dated 2004).

Legend:
[1] = tested on: bedstraw; test: Test B pre/postemergence bedstraw; format: in vivo, Galium aparine
In short: (§1)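 Test chemicals in a non-phytotoxic solvent mixture with surfactant were sprayed preemergence onto planted seeds and postemergence onto plants 2 to 18 cm tall (1- to 4-leaf stage). After twelve to sixteen days in a greenhouse, injury was visually rated against untreated controls from 0 (no effect) to 10 (complete control).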

[2] = tested on: blackgrass; test: Test B pre/postemergence blackgrass; format: in vivo, Alopecurus myosuroides
In short: as §1

[3] = tested on: surinam grass; test: Test B pre/postemergence surinam grass; format: in vivo, Brachiaria decumbens
In short: as §1

[4] = tested on: cocklebur; test: Test B pre/postemergence cocklebur; format: in vivo, Xanthium strumarium
In short: as §1

[5] = tested on: corn; test: Test B pre/postemergence corn; format: in vivo, Zea mays
In short: as §1

[6] = tested on: giant foxtail; test: Test B pre/postemergence giant foxtail; format: in vivo, Setaria faberii
In short: as §1

[7] = tested on: morningglory; test: Test B pre/postemergence morningglory; format: in vivo, Ipomoea hederacea
In short: as §1

[8] = tested on: pigweed; test: Test B pre/postemergence pigweed; format: in vivo, Amaranthus retroflexus
In short: as §1

[9] = tested on: rape; test: Test B pre/postemergence rape; format: in vivo, Brassica napus
In short: as §1

[10] = tested on: sugar beet; test: Test B pre/postemergence sugar beet; format: in vivo, Beta vulgaris
In short: as §1

[11] = tested on: velvetleaf; test: Test B pre/postemergence velvetleaf; format: in vivo, Abutilon theophrasti
In short: as §1

[12] = tested on: purple nutsedge; test: Test B pre/postemergence purple nutsedge; format: in vivo, Cyperus rotundus
In short: as §1

[13] = tested on: rice; test: Test B flood test rice; format: in vivo, Oryza sativa
In short: (§2)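 Flood test on plants grown to the 2-leaf stage; treated plants kept in greenhouse twelve to sixteen days, then visually rated against controls on a 0 (no effect) to 10 (complete control) scale.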

[14] = tested on: duck salad; test: Test B flood test duck salad; format: in vivo, Heteranthera limosa
In short: as §2

[15] = tested on: bamyardgrass; test: Test B flood test barnyardgrass; format: in vivo, Echinochloa crus-galli
In short: as §2

[16] = Postemergence, Rate 125 g/ha, scale 0 to 10, 0 is no effect, 10 is complete control
[17] = Preemergence, Rate 62 g/ha, scale of 0 to 10 where 0 is no effect and 10 is complete control
[18] = Preemergence, Rate 250 g/ha, scale of 0 to 10 where 0 is no effect and 10 is complete control
[19] = Preemergence, Rate 500 g/ha, scale of 0 to 10 where 0 is no effect and 10 is complete control
[20] = Rate 62 g/ha, Postemergence, scale 0 to 10 (0 no effect, 10 complete control)
[21] = Rate 250 g/ha, Postemergence, scale of 0 to 10 where 0 is no effect and 10 is complete control
[22] = Rate 500 g/ha, Postemergence, scale 0 to 10, 0 no effect, 10 complete control
[23] = Rate 62 g/ha, headed Pre-emergence (flood test species), scale 0 to 10 (0 no effect, 10 complete control)
[24] = Rate 125 g/ha, Pre-emergence, flood test species, scale 0 to 10 where 0 is no effect and 10 is complete control
[25] = Rate 250 g/ha, Pre-emergence, flood-test species, scale 0 to 10, 0 is no effect, 10 is complete control
[26] = Rate 500 g/ha, Pre-emergence, flood test species, scale 0 to 10 (0 no effect, 10 complete control)

Cc1c(-n2c(=O)on(C(=O)N(c3ccc(Cl)cc3)C(C)C)c2=O)ccc2ccccc12 [Compound 336]
0: Plant response rating, Bedstraw [1, 16] | Bedstraw plant response rating [1, 17] | Bedstraw plant response rating (0 to 10 scale) ([1]; Preemergence, Rate 125 g/ha) | Bedstraw plant response rating [1, 18] | Bedstraw plant response rating [1, 19] | Bedstraw plant response rating [1, 20] | Plant response rating, Bedstraw [1, 21] | Plant response rating, Bedstraw [1, 22] | Plant response rating, Blackgrass [2, 16] | Blackgrass plant response rating [2, 17] | Blackgrass plant response rating (0 to 10 scale) ([2]; Preemergence, Rate 125 g/ha) | Blackgrass plant response rating [2, 18] | Blackgrass plant response rating [2, 19] | Blackgrass plant response rating [2, 20] | Plant response rating, Blackgrass [2, 21] | Plant response rating, Blackgrass [2, 22] | Plant response rating, B. signalgrass [3, 16] | B. signalgrass plant response rating [3, 17] | B. signalgrass plant response rating (0 to 10 scale, 0 is no effect, 10 is complete control) ([3]; Preemergence, Rate 125 g/ha) | B. signalgrass plant response rating [3, 18] | B. signalgrass plant response rating [3, 19] | B. signalgrass plant response rating [3, 20] | Plant response rating, B. signalgrass [3, 21] | Plant response rating, B. signalgrass [3, 22] | Plant response rating, Cocklebur [4, 16] | Cocklebur plant response rating [4, 17] | Cocklebur plant response rating (0 to 10 scale) ([4]; Preemergence, Rate 125 g/ha) | Cocklebur plant response rating [4, 18] | Cocklebur plant response rating [4, 19] | Cocklebur plant response rating [4, 20] | Plant response rating, Cocklebur [4, 22] | Plant response rating, Corn [5, 16] | Corn plant response rating [5, 17] | Corn plant response rating (0 to 10 scale) ([5]; Preemergence, Rate 125 g/ha) | Corn plant response rating [5, 18] | Corn plant response rating [5, 19] | Corn plant response rating [5, 20] | Plant response rating, Corn [5, 22] | Plant response rating, Giant foxtail [6, 16] | Giant foxtail plant response rating [6, 17] | Giant foxtail plant response rating (0 to 10 scale) ([6]; Preemergence, Rate 125 g/ha) | Giant foxtail plant response rating [6, 18] | Giant foxtail plant response rating [6, 19] | Giant foxtail plant response rating [6, 20] | Plant response rating, Giant foxtail [6, 22] | Plant response rating, Morningglory [7, 16] | Morningglory plant response rating [7, 17] | Morningglory plant response rating (0 to 10 scale) ([7]; Preemergence, Rate 125 g/ha) | Morningglory plant response rating [7, 18] | Morningglory plant response rating [7, 19] | Morningglory plant response rating [7, 20] | Plant response rating, Morningglory [7, 22] | Plant response rating, Redroot pigweed [8, 16] | Redroot pigweed plant response rating [8, 17] | Redroot pigweed plant response rating (0 to 10 scale) ([8]; Preemergence, Rate 125 g/ha) | Redroot pigweed plant response rating [8, 18] | Redroot pigweed plant response rating [8, 19] | Redroot pigweed plant response rating [8, 20] | Plant response rating, Redroot pigweed [8, 22] | Plant response rating, Rape [9, 16] | Rape plant response rating [9, 17] | Rape plant response rating (0 to 10 scale) ([9]; Preemergence, Rate 125 g/ha) | Rape plant response rating [9, 18] | Rape plant response rating [9, 19] | Rape plant response rating [9, 20] | Plant response rating, Rape [9, 22] | Plant response rating, Sugarbeets [10, 16] | Sugarbeets plant response rating [10, 17] | Sugarbeets plant response rating (0 to 10 scale) ([10]; Preemergence, Rate 125 g/ha) | Sugarbeets plant response rating [10, 18] | Sugarbeets plant response rating [10, 19] | Sugarbeets plant response rating [10, 20] | Plant response rating, Sugarbeets [10, 22] | Plant response rating, Velvetleaf [11, 16] | Velvetleaf plant response rating [11, 17] | Velvetleaf plant response rating (0 to 10 scale) ([11]; Preemergence, Rate 125 g/ha) | Velvetleaf plant response rating [11, 18] | Velvetleaf plant response rating [11, 19] | Velvetleaf plant response rating [11, 20] | Plant response rating, Velvetleaf [11, 22] | Plant response rating, Nutsedge [12, 16] | Nutsedge plant response rating [12, 17] | Nutsedge plant response rating (0 to 10 scale) ([12]; Preemergence, Rate 125 g/ha) | Nutsedge plant response rating [12, 18] | Nutsedge plant response rating [12, 19] | Nutsedge plant response rating [12, 20] | Plant response rating, Nutsedge [12, 22] | Rice plant response rating [13, 23] | Rice plant response rating [13, 24] | Rice plant response rating [13, 25] | Rice plant response rating [13, 26] | Ducksalad plant response rating [14, 23] | Ducksalad plant response rating [14, 24] | Ducksalad plant response rating [14, 25] | Ducksalad plant response rating [14, 26] | Barnyardgrass plant response rating [15, 23] | Barnyardgrass plant response rating [15, 24] | Barnyardgrass plant response rating [15, 25] | Barnyardgrass plant response rating [15, 26]
